Assay results: patent US20100286139A1, “AMINO PYRAZOLE COMPOUND” (ELI LILLY AND COMPANY, priority 2008, published 2010)
pIC50: −log10 of the molar value.

Target: T1, JAK3 (Homo sapiens, UniProt P52333)
T1 construct: host or cells: NK-92 natural killer cells, IL-2-stimulated
T1 sequence (P52333 1-1124): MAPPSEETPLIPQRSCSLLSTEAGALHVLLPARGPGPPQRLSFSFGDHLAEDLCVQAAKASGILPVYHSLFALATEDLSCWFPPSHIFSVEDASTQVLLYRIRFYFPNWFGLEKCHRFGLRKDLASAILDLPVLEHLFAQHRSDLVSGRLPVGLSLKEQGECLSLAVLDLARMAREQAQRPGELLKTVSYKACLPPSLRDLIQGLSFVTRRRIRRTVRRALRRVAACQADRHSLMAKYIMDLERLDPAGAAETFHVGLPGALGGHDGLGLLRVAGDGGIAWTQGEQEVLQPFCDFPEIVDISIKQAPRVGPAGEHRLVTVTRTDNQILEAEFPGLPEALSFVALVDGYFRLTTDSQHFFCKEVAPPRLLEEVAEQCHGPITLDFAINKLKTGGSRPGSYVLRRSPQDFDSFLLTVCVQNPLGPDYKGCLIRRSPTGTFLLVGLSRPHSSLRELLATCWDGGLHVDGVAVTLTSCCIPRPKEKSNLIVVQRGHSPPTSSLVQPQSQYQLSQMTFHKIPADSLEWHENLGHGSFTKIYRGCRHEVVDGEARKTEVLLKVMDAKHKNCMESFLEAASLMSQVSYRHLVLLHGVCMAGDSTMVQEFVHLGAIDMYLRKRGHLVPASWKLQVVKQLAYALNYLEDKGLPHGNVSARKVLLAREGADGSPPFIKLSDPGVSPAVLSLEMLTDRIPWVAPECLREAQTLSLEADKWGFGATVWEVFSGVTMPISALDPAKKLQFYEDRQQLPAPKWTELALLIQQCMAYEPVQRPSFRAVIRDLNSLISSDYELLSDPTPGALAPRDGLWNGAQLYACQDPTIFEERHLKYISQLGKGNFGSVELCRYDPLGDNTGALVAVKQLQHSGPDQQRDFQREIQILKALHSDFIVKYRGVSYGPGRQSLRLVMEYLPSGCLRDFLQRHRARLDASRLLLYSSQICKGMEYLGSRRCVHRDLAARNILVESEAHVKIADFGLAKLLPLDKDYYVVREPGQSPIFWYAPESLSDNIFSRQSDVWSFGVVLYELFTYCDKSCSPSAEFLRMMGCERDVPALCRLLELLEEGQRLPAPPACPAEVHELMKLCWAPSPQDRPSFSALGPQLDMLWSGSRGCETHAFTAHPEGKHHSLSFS
Assay: JAK3 IL-2-NK-92/pSTAT5 cell-based assay (Cellomics ArrayScan HCS)
From the text: IL-2 activates the JAK3 pathway in natural killer (NK) cells to drive the NK and CD8 lymphocyte proliferation. Therefore, IL-2 stimulated NK92/pSTAT5 cell-based assay enables the evaluation of the JAK3 cellular activity of JAK2 compounds in vitro.
NK-92 (natural killer) cells (ATCC, Manassas, Va.) are maintained in minimum essential medium (MEM) Alpha with 15% fetal bovine serum, 15% Horse Serum and 1× antibiotic/antimycotic (Invitrogen, Carlsbad, Calif.). The medium is supplemented with IL-2 (R&D systems, Minneapolis, Minn.) for a final concentration of 4 ng/mL. Cells are kept at 37° C. with 5% CO2. Cells are starved in serum free medium to remove endogenous growth factors. NK-92 cells are counted and collected to seed 2×10^7 cells per 96-well plate at a density of 2×10^5 cells per well. The cells are rinsed twice with unsupplemented MEM Alpha (MEM Alpha) before suspending cells at a final concentration of 8×10^5 cells/mL in MEM Alpha with 0.6% serum (0.3% FBS, 0.3% horse serum). […]
To perform the assay, serum-starved cells are collected and washed once with unsupplemented RPMI 1640 medium. […] An aliquot of 200 μL of 1 to 10 dilution of Mouse anti-pSTAT5 (pY694) Alexa Fluor 647® in fluorescence activated cell sorting (FACS) buffer is added to the cells. […] Mean fluorescent intensity data are collected and analyzed using Cellomics Arrayscan® VTi. […] The MSR is determined to be 2.06. […]

In the case of `Cc1cc(Nc2cc(CN3CCOCC3)c3nc(C)c(Cc4ccc(Cl)cc4F)n3n2)n[nH]1` [3-(4-Chloro-2-fluorobenzyl)-2-methyl-N-(5-methyl-1H-pyrazol-3-yl)-8-(morpholinomethyl)imidazo[1,2-b]pyridazin-6-amine], the “ratio of JAK3/JAK2 IC50” value (JAK3 IL2-NK92-pSTAT5 IC50 over JAK2 EPO-TF1/pSTAT5 IC50) was 28.5 fold and the pIC50 (NK-92 cells, IL-2 0.5 ng/mL stimulated, n=4, read-out: relative IC50, inhibition of pSTAT5) was 6.03.
